Data taken from patent publication US8278072B1, “Method for synthesis of sialylated products using reversible sialylation” (Health Research, Inc., priority 2007, dated 2012).
Counter-ions that a name gives are not always drawn. Like-named read-outs stand apart in the source and are kept apart here.

Columns and labels:
Format in all cases: biochemical
ST3Gal-II [1] = biological target: T1, ST3Gal-II (Rattus norvegicus, UniProt Q11205); assay: CMP-NeuAc / UMP-NeuAc formed by reverse sialylation as sialyl donor, ST3Gal-II activity; conditions: acceptor 2.5 mM D-Fucβ1,3GalNAcα-O-Bn; donor [3] 0.0625 mM, 8 mM 5′-CMP or 5′-UMP, 4 h, blank subtracted
T1 construct: purchased Calbiochem
T1 sequence (Q11205 1-350): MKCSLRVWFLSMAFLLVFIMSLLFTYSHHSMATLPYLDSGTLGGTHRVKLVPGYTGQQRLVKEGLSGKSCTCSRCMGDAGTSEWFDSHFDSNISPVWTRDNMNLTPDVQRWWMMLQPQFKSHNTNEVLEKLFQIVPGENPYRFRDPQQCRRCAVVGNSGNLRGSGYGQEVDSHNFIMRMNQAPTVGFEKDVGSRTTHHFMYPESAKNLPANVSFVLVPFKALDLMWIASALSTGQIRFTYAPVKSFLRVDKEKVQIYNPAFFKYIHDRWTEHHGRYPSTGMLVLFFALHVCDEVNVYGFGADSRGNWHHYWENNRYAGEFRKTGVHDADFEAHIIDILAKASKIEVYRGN

ST6Gal-I = biological target: T2, ST6Gal-I (Rattus norvegicus, UniProt P13721); assay: CMP-NeuAc / UMP-NeuAc formed by reverse sialylation as sialyl donor, ST6Gal-I activity; conditions: acceptor 2.5 mM Galβ1,4GlcNAcβ-O-Bn; donor [3] 0.0625 mM, 8 mM 5′-CMP or 5′-UMP, ST3Gal-II plus ST6GalI, 4 h
T2 construct: purchased Calbiochem
T2 sequence (P13721 1-403): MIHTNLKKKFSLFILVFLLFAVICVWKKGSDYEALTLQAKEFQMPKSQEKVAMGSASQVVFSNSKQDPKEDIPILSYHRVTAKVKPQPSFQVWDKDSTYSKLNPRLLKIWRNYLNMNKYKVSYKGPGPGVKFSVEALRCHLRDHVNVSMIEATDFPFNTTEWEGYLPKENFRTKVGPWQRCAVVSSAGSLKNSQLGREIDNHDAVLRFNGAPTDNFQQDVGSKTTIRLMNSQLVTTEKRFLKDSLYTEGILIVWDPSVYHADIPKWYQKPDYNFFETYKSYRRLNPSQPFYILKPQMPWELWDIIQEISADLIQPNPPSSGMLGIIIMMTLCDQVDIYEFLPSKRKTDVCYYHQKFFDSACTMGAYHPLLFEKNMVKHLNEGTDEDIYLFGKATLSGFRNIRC

ST3Gal-III = biological target: T3, ST3Gal-III (Rattus norvegicus, UniProt Q02734); assay: CMP-NeuAc / UMP-NeuAc formed by reverse sialylation as sialyl donor, ST3Gal-III activity; conditions: acceptor 2.5 mM 4-O-MeGalβ1,4GlcNAcβ-O-Bn; donor [3] 0.0625 mM, 8 mM 5′-CMP or 5′-UMP, ST3Gal-II plus ST3Gal-III, 4 h
T3 construct: purchased Calbiochem
T3 sequence (Q02734 1-374): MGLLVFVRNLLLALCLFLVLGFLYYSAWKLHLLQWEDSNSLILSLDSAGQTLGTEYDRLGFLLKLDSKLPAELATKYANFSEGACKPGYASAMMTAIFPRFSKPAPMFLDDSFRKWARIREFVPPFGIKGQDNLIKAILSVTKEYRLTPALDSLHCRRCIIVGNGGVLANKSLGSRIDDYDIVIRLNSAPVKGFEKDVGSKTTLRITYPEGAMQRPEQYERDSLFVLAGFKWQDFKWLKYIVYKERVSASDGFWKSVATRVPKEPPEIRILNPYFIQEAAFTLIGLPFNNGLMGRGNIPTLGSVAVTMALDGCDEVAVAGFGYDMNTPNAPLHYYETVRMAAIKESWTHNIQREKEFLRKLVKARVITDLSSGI

[2] = biological target: T4, ST3Gal II (Cloned rat liver) (Rattus norvegicus, UniProt Q11205); assay: Forward (direct) sialyltransferase activity, ST3Gal-II
T4 construct: purchased Calbiochem
T4 sequence (Q11205 1-350): T1 sequence (Q11205 1-350)
Procedure: (§1) FIG. 5. Effect of 5′-nucleotides on direct sialyltransferase activity (panel a) and reverse sialylation (panel b). a. Varying concentrations of 5′-CDP or 5′-CMP were added to 100 mM acceptor (specified below), 0.15 mM CMP-[9-^3H]NeuAc and either ST3Gal-II (0.2 mU), ST3Gal-III (0.5 mU) or ST6Gal-I (0.2 mU) for 4 h at 37° C. Products were separated using Sep-Pak C18 method. ST3Gal-III activity was measured using acceptor 4-O-MeGalβ1,4GlcNAcβ-O-Bn in the presence of 5′-CDP (●) and 5′-CMP (◯). ST6Gal-I activity was measured using Gal β1,4GlcNAcβ-O-Bn in the presence of 5′-CDP (▴) and 5′-CMP (Δ). ST3Gal-II using D-Fucβ1,3GalNAcα-O-Bn in the presence of 5′-CDP (▪) and 5′-CMP (□). b) Reverse sialylation by ST3Gal-II was measured in reaction mixtures containing 0.2 mM [9-^3H] [3], 7 mM 5′-CMP, ST3Gal-II (2 mU), D-Fucβ1,3GalNAcα-OBn (3.0 mM) and varying doses of either 5′-CDP (▴), 5′-UMP (◯) or 2-deoxy 5′-CMP (●) for 4 hours at 37° C. Reaction product ([9-^3H]NeuAcα2,3DFucβ1,3 GalNAcα-O-Bn) was isolated using Sep-Pak C18 method. In some runs, where was absent, the amount of CMP-NeuAc produced was quantified using the Dowex-1 Formate method in the presence of varying doses of 5′-CDP (▪).
(§2) Besides pH other distinctions were also observed between forward and reverse sialylation. In this regard, citrate ions tended to inhibit forward sialylation but not reverse sialylation activity (Table V). For these studies, the effect of citrate on the forward sialylation activity of ST3Gal-I, ST3Gal-II, ST3Gal-III and ST6Gal-I was examined. Reverse sialylation activity of ST3Gal-II was also measured in terms of: i) the formation of CMP-NeuAc from 5′-CMP; and ii) the transfer of NeuAc from this newly synthesized CMP-NeuAc to another O-glycan. From the data (Table V), it is evident that citrate inhibits the direct sialylation activity of all the enzymes mentioned above. However, both the synthesis of CMP-[9-^3H]NeuAc from 5′-CMP as well as the synthesis of [9-^3H]NeuAcα2,3D-Fucβ1,3 GalNAcα-O-Bn using the newly formed CMP-[9-^3H]NeuAc through reverse sialylation of ST3Gal-II was not inhibited by citrate.
(§3) The effect of 5′-nucleotides on forward sialylation (FIG. 5a) and reverse sialylation (FIG. 5b) were examined. […] The overall formation of [9-^3H]NeuAcα2,3D-Fucβ1,3 GalNAcα-O-Bn by the two-step reverse sialylation process, however, was inhibited by 5′-CDP and this is consistent with the finding that 5′-CDP inhibits forward sialylation in the second step.

ST3Gal I (Cloned Human) = biological target: T5, ST3Gal I (Cloned Human) (Homo sapiens, UniProt Q11201); assay: Forward (direct) sialyltransferase activity, ST3Gal I
T5 sequence (Q11201 1-340): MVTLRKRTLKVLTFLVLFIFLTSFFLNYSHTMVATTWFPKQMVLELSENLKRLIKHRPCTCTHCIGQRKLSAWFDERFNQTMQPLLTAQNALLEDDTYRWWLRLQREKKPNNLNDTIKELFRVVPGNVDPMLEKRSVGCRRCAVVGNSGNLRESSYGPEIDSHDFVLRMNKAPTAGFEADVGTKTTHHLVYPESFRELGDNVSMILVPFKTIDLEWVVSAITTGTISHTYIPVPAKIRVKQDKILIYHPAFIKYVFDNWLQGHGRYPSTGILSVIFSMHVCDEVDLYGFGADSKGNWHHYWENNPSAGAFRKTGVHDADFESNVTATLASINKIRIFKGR
Procedure: as §2

[3] = biological target: T6, ST6Gal I (Cloned rat liver) (Rattus norvegicus, UniProt P13721); assay: Forward (direct) sialyltransferase activity, ST6Gal-I
T6 construct: purchased Calbiochem
T6 sequence (P13721 1-403): T2 sequence (P13721 1-403)
Procedure: as §1, §2, §3

ST3Gal-II [4] = biological target: T1, ST3Gal-II; assay: Reverse sialylation by ST3Gal-II in presence of citrate or 5′-nucleotides; conditions: for inhibition at 40000 µM: 40 mM citrate, donor [3]
Procedure: as §1, §2, §3

[5] = biological target: T7, ST3Gal III (Cloned rat liver) (Rattus norvegicus, UniProt Q02734); assay: Forward (direct) sialyltransferase activity, ST3Gal-III
T7 construct: purchased Calbiochem
T7 sequence (Q02734 1-374): T3 sequence (Q02734 1-374)
Procedure: as §1, §2, §3

[6] = acceptor Galβ1,3GalNAcβ-O-Al 1.0 mM, 0.15 mM CMP-[9-3H]NeuAc, 4 hours

| Compound | Incorporation of [9-3H]NeuAc into the acceptor, ST3Gal-II activity (ST3Gal-II [1]) | Incorporation of [9-3H]NeuAc into the acceptor, ST6Gal-I activity (ST6Gal-I) | Incorporation of [9-3H]NeuAc into the acceptor, ST3Gal-III activity (ST3Gal-III) | inhibition at 40000 µM ([2]; 40 mM citrate, acceptor Galβ1,3GalNAcβ-O-Al) | Activity (Incorporation of [9-3H]NeuAc) with citrate (40 mM) [2, 6] | inhibition at 40000 µM (ST3Gal I (Cloned Human)) | Activity (Incorporation of [9-3H]NeuAc) with citrate (40 mM) (ST3Gal I (Cloned Human); [6]) | inhibition at 40000 µM ([3]; 40 mM citrate, acceptor Galβ1,4GlcNAcβ-O-Bn) | Activity (Incorporation of [9-3H]NeuAc) with citrate (40 mM) ([3]; acceptor Galβ1,4GlcNAcβ-O-Bn 1.0 mM, 0.15 mM CMP-[9-3H]NeuAc, 4 hours) | inhibition at 40000 µM (ST3Gal-II [4]; read-out: Inhibition of synthesis of CMP-[9-3H]NeuAc from 5′-CMP) | inhibition at 40000 µM (ST3Gal-II [4]; read-out: Inhibition of synthesis of [9-3H]NeuAcα2,3D-Fucβ1,3GalNAcα-OBn through 5′-CMP) | Activity (Incorporation of [9-3H]NeuAc) with citrate (40 mM): synthesis of [9-3H]NeuAcα2,3D-Fucβ1,3GalNAcα-OBn through 5′-CMP (ST3Gal-II [4]; donor […] [3], 20 mM 5′-CMP, 3.0 mM D-Fucβ1,3GalNAcα-OBn, 4 hours) | Activity (Incorporation of [9-3H]NeuAc) with citrate (40 mM): synthesis of CMP-[9-3H]NeuAc from 5′-CMP (ST3Gal-II [4]; donor […] [3], 20 mM 5′-CMP, 5.0 mU ST3Gal-II, 4 hours) | inhibition at 40000 µM ([5]; 40 mM citrate, acceptor 4-O-MeGalβ1,4GlcNAcβ-O-Bn) | Activity (Incorporation of [9-3H]NeuAc) with citrate (40 mM) ([5]; acceptor 4-O-MeGalβ1,4GlcNAcβ-O-Bn 1.0 mM, 0.15 mM CMP-[9-3H]NeuAc, 4 hours) |
| --- | --- | --- | --- | --- | --- | --- | --- | --- | --- | --- | --- | --- | --- | --- | --- |
| CC(=O)NC1C(O)CC(OP(=O)(O)OCC2OC(n3ccc(=O)[nH]c3=O)C(O)C2O)(C(=O)O)OC1C(O)C(O)CO (stereo not drawn) [UMP-NeuAc] | 1243 CPM | 182 CPM | 3804 CPM |  |  |  |  |  |  |  |  |  |  |  |  |
| O=C(O)CC(O)(CC(=O)O)C(=O)O [citrate, sodium citrate] |  |  |  | 48.2% | 33025 CPM | 98.3% | 402 CPM | 92.4% | 7471 CPM | 0% | 0% | 59131 CPM | 48800 CPM | 64.3% | 39115 CPM |
